For the experiment, the system named is U937 (human lymphoma cell). As to the kind of experiment: MTS cell proliferation test, U937 (Embodiment 7). The format is cell-based. Particulars: U937; summary of Table 1 in words. On the procedure:
The test solution was prepared by dissolving the (compound 1) into the dimethylsulfoxide ([…]) with the concentration of 8 mg/ml.
The test was performed by using the U937 (human lymphoma cell) as the cancer cell and using the HEK293 (human fetus kidney cell) as the normal cell.
These cells were suspended in the each culture medium that the serum of 10% was added, and were dispensed in 96-well plate. And then, these were cultured in 5% CO2 at 37 degrees centigrade during a night. Next day, the test solution was prepared in the culture medium to the various concentrations (0, 4, 8, 16 μg/ml), and was dispensed into the plate that the cells were set preliminarily. And further, these were cultured in 5% CO2 at 37 degrees centigrade for three days.
The cell proliferation after the medicine addition was measured on the 3rd day from the 1st day after the medicine addition by the […] (Kit for cell proliferation test manufactured by Promega Company).
The inhibition rate (%) of the cell proliferation was obtained from the measured MTS value by the following formula. Inhibition rate(%)=(1-MTS value of medicine addition group/MTS value of medicine non-addition group)×100
Because the value which was obtained by the above-mentioned formula represents the inhibition rate of the cell proliferation, the higher the numerionl value is, the higher the medicine effect is. It is deemed that the one whose value is 50% or more has the medicine effect.
Background: Tetrazolium assays rely on reduction of a dye to a coloured formazan, in cell work by metabolically active cells.

The values below come from patent US8501977B2, “Platinum complex and pharmaceutical composition containing the same” (Unitech Co., Ltd., priority 2008, dated 2013).

Turning to `O=C1[O][Pt]2([NH][C@H]3CCCC34CCC[C@@H]4[NH]2)[O]C1=O` (stereo partly drawn) [compound 1, (cis,cis-spiro[4,4]nonane-1,6-diamine) oxalatoplatinum(II) complex], the “medicine effect in the cancer cell (U937)” value was “remarkable medicine effect”.
